The subject of data set [1] is human embryonic lung (HEL) cells. In words: Cytotoxicity, inhibition of HEL cell growth. The conditions noted are these: for cytotoxic activity (in words): at 100 μM. It is filed as cell-based.
Data set [2] concerns varicella zoster virus (VZV). The conditions noted are these: for antiviral activity (in words): at 100 μM; for anti-VZV activity (in words): HEL cells.
In data set [3] the test system is human embryonic lung (HEL) cells. The conditions noted are these: Table 2, concentration that causes a microscopically detectable alteration of morphology.
Data set [4] relates to broad variety of RNA viruses, including HIV-1 and HIV-2, feline coronavirus, vesicular stomatitis virus, Coxsackie virus B4, respiratory syncytial virus …. It is filed as cell-based.
Data set [5] has as its system varicella zoster virus (VZV). Description: in vitro. The conditions noted are these: human.
For data set [6], the system named is varicella zoster virus (VZV). In words: microbe, parasite or virus in culture. The following applies: Human alphaherpesvirus 3, HEL, read-out: EC50 against VZV.
Data set [7] deals with HCMV, HSV-1, HSV-2. It is filed as cell-based. The following applies: HCMV AD-169 and Davis, HSV-1 KOS and TK- KOS ACVr, HSV-2 G; HEL cell cultures.
Data set [8] concerns human cytomegalovirus (HCMV) Davis strain. Description: microbe, parasite or virus in culture. It counts as cell-based. The following applies: Human betaherpesvirus 5, HEL, read-out: Antiviral activity EC50 HMCV Davis.
A short description of data set [9]: Cytotoxicity, inhibition of HEL cell growth. The conditions noted are these: human, human embryonic lung (HEL) cells, CC50, cytotoxic concentration required to reduce HEL cell growth by 50%; 3 days. It counts as cell-based, human.
The test system of data set [10] is varicella-zoster virus (VZV) TK+ OKA strain. Description: microbe, parasite or virus in culture. It counts as cell-based. The following applies: Human alphaherpesvirus 3, HEL, read-out: EC50 TK+ OKA.

Structures are written as SMILES.

Regarding `CCCn1cc(CN2CCCCC2)c2ccccc21` [Compound 4b], the “cytotoxic activity (in words)” value in data set [1] was “do not displayed antiviral or cytotoxic activities”. In addition, the “antiviral activity (in words)” value in [2] is given as “do not displayed antiviral or cytotoxic activities”. For the same compound, the “Cytotoxicity MMC” value in [3] was >100 µM. With `c1ccc(-c2ccc(Cn3cc(CN4CCCCC4)c4ccccc43)cc2)cc1` [Compound 4d], the “Cytotoxicity MMC” value in data set [3] was 20 µM. Broadly, the EC50 is the concentration at which the effect is half-maximal. As to `CC(=O)N(CCc1ccc(-c2ccccc2)cc1)CCc1cn(C)c2ccccc12` [Compound 17a], in [4], the “inhibitory activity against RNA viruses (in words)” value was “totally inactive”. In data set [5], the selectivity ratio lay in the range of 10 to 20. For the same compound, the 50% effective concentration (EC50) in [6] was in the range of 1.7 to 3.6 µM. In data set [7], the “activity against other Herpesviridae (in words)” value is “totally inactive”. The “Cytotoxicity MMC” value in data set [3] worked out at 20 µM. Turning to `Nc1ccn(C[C@@H](CO)OCP(=O)(O)O)c(=O)n1.O.O` [Cidofovir, reference compound], in data set [8], the EC50 came out at 0.51 µM. In addition, the “Cytotoxicity MMC” value in data set [3] was >250 µM. As for `Cn1cc(CCN(CCc2ccc(-c3ccccc3)cc2)C(=O)CCN2CCOCC2)c2ccccc21` [Compound 18c], in data set [2], the “anti-VZV activity (in words)” value is “annihilation of antiviral activity”. For `Cn1cc(CCN(CCc2ccc(-c3ccccc3)cc2)C(=O)C2CCCCC2)c2ccccc21` [Compound 18a], the “anti-VZV activity (in words)” value in data set [2] is “annihilation of antiviral activity”. For the compound `Cn1cc(CCN(CCc2ccc(-c3ccccc3)cc2)C(=O)OC(C)(C)C)c2ccccc21` [Compound 18d], in data set [2], the “anti-VZV activity (in words)” value is recorded as “annihilation of antiviral activity”. With `CCCn1cc(CNCCc2ccc(-c3ccccc3)cc2)c2cc(CNc3ccc(Cl)cc3)ccc21` [Compound 8b], in data set [3], the “Cytotoxicity MMC” value was found to be 20 µM.

On to `COC(=O)c1ccc(CNCCc2cn(Cc3ccc(-c4ccccc4)cc3)c3ccccc23)cc1` [Compound 15], for which the “Cytotoxicity MMC” value in data set [3] worked out at 20 µM. With `CC(=O)N(CCc1cn(C)c2ccccc12)Cc1ccc2ccccc2c1` [Compound 17f], the “anti-VZV activity (in words)” value in [2] is “complete loss of the antiviral activity”. For `CCCn1cc(CN2CCCCC2)c2cc(CNc3ccc(Cl)cc3)ccc21` [Compound 8a], the “Cytotoxicity MMC” value in data set [3] stood at 20 µM.

As for `CCCn1cc(C(=O)c2ccc(Cl)cc2)c2ccccc21` [Compound 4a], the “cytotoxic activity (in words)” value in data set [1] is given as “do not displayed antiviral or cytotoxic activities”. Further, the “antiviral activity (in words)” value in data set [2] is given as “do not displayed antiviral or cytotoxic activities”. Besides, the “Cytotoxicity MMC” value in data set [3] was >100 µM. A word on the CC50: it is the concentration that lowers cell viability or growth by half. A higher CC50 goes with better tolerance by the cells. `Nc1nc2c(ncn2COCCO)c(=O)[nH]1` [Acyclovir, acyclovir, reference compound] came in with a cytotoxic concentration (CC50) in data set [1] (cytotoxic concentration required to reduce HEL cell growth by 50%, 3 days) of 191 µM. Moreover, half-maximal cytotoxicity in data set [9] (CC50 at 3 days) was put at 224 µM. In addition, the “Cytotoxicity MMC” value in [3] was >250 µM. On to `CC(=O)N(CCc1cn(C)c2ccccc12)c1ccc2ccccc2c1` [Compound 17d], for which, in data set [2], the “anti-VZV activity (in words)” value is on record as “complete loss of the antiviral activity”. Same read-out and setting: the same measure for `CC(=O)N(CCc1cn(C)c2ccccc12)c1cccc2ccccc12` [Compound 17e]: “complete loss of the antiviral activity”. For `CCCn1cc(CNCCc2ccc(-c3ccccc3)cc2)c2ccccc21` [Compound 4c], the “Cytotoxicity MMC” value in data set [3] was 4 µM. In the case of `CC(=O)N(CCc1cn(C)c2ccccc12)Cc1cccc2ccccc12` [Compound 17g], in data set [2], the “anti-VZV activity (in words)” value is given as “complete loss of the antiviral activity”. Consider `CC(=O)N(CCc1cn(C)c2ccccc12)Cc1ccc(-c2ccccc2)cc1` [Compound 17h], for which, in [2], the “anti-VZV activity (in words)” value is “complete loss of the antiviral activity”.

For the compound `O=c1[nH]c(=O)n([C@H]2C[C@H](O)[C@@H](CO)O2)cc1/C=C/Br` [Brivudin, brivudin, reference compound], in [10], the EC50 was in the range of 0.02 to 0.03 µM. Also, the “Cytotoxicity MMC” value in data set [3] was >250 µM.

Turning to `CCCn1cc(CN2CCCCC2)c2cc(NC(=O)c3ccccc3)ccc21` [Compound 8c], in data set [3], the “Cytotoxicity MMC” value amounted to 100 µM.

On to `Cn1cc(CCNCCc2ccc(-c3ccccc3)cc2)c2ccccc21` [Compound 16a], for which the “Cytotoxicity MMC” value in [3] is >4 µM. As to `CC(=O)N(CCc1cn(C)c2ccccc12)Cc1ccc(Oc2ccccc2)cc1` [Compound 17i], the “anti-VZV activity (in words)” value in data set [2] is on record as “complete loss of the antiviral activity”.

For the origin of these results see PMC7115581 (European Journal of Medicinal Chemistry, 2016).
